Reference: a melting point compilation (Tetko et al.; mined from patent text by program, amines drawn as free bases though some values may be those of a salt)

`CC(C)c1cccc2[nH]c(C(=O)O)cc(=O)c12` and `O=c1[nH]c2ccc(Br)cc2cc1[N+](=O)[O-]` cannot be ordered by melting point: greater than 250 °C for the first, 276 °C for the second.

Compared with `CCN1C(=O)C(C)(C)C(=O)N(C)c2cc(CN(CCn3c(=O)ccc4ccccc43)Cc3cccnc3C)ccc21`, `CCCCc1nn(-c2ccccc2C(F)(F)F)c(=O)n1Cc1ccc(-c2ccccc2S(=O)(=O)NC(=O)[C@H]2CC2(C)C)cc1` is lower in melting point: 149 to 150 °C for the first, 93 to 95 °C for the second.

First: COc1ccc(CN2C(=O)C3(COc4cc(F)c(C#N)cc43)c3ccccc32)cc1 (stereo unspecified)
Second: COc1ccc(C(=O)c2cccc(OCc3nc(-c4ccccc4)oc3C)c2)c(O)c1
The melting point of the first is higher: 142 to 143 °C for the first, 117 to 118 °C for the second.

First: CCOC(=O)/C=C/c1cccc(C2COc3c(C)c(C)c(NC(=O)CC(C)(C)C)c(C)c32)c1 (stereo unspecified)
Second: CCCCOc1c(CNC(=O)OC(C)(C)C)n(CC(C)C)c(=O)c2ccc(/C=C/C(=O)O)cc12
The melting point of the first is lower: 199 to 200 °C for the first, 207 to 209 °C for the second.

First: Nc1cccc2c1cnn2-c1ccc(F)cc1
Second: Cn1nnc(Cc2ccc(NC(=O)/C=C/c3cnn(C)c3-c3ccc(F)cc3)cc2)n1
The melting point of the first is lower: 84 to 88 °C for the first, 159 to 161 °C for the second.

Compared with `Cc1ccccc1S(=O)(=O)NC(=O)c1ccc2c(c1)CCN2Cc1cccc([N+](=O)[O-])c1`, `O=C(c1cccc(C(=O)c2ccc(F)c([N+](=O)[O-])c2)c1)c1ccc(F)c([N+](=O)[O-])c1` is lower in melting point: 159 to 163 °C for the first, 148 to 149 °C for the second.

Going from `CNc1cc(-n2cc(C(=O)O)c(=O)c3cc(F)c(F)c(C)c32)c(F)cc1F` to `CNC(=O)c1cc(N2CCCC2)cc(C)c1C(N)=O`, the melting point falls from 238 °C to 160 °C.

First: O=C1NC(=O)C(Nc2ccc(CCNC[C@H](O)c3ccccc3)cc2)S1 (stereo partly specified)
Second: CCOc1ccc(Nc2cccc3ccccc23)cc1
The melting point of the first is lower: 55 °C for the first, 73 to 75 °C for the second.

First: CN(C)c1nnc(-c2ccc(S(C)=O)cc2)c(-c2ccc(S(C)=O)cc2)n1 (stereo unspecified)
Second: COc1ccc(Sc2nc(-c3ccc(OC)cc3)cnc2N)cc1
The melting point of the first is higher: 199 to 204 °C for the first, 149 to 151 °C for the second.

Compared with `NC(=O)Cn1c(-c2ccccn2)nc2cccnc21`, `O=C(OCC1(c2ccccc2)CC1)c1cccc2nnsc12` is lower in melting point: 275 to 278 °C for the first, 55 to 57 °C for the second.

First: COc1cc(C#C[Si](C)(C)C)c(OC)cc1C#C[Si](C)(C)C
Second: CN(C(=O)OC(C)(C)C)c1sc(-c2cccnc2)nc1Br
The melting point of the first is higher: 164 to 165 °C for the first, 88 to 91 °C for the second.

First: CCCOc1ccccc1-c1nc2ccccc2c(=O)[nH]1
Second: Cc1oc(-c2ccccc2)nc1CCOc1ccc(C[C@H](OC(C)C)C(=O)O)c2sccc12
The melting point of the first is lower: 88 to 89 °C for the first, 167 to 168 °C for the second.

Compared with `O=C(O)CCCC(O)c1ccc(Cl)cc1` (stereo unspecified), `O=C(O)CCc1ocnc1-c1ccccc1` is higher in melting point: 85 to 87 °C for the first, 142 to 143 °C for the second.

Compared with `O=C(Nc1ccccc1O)c1ccc(O)c(Cl)c1`, `CC(C)(Sc1ccc2c(-c3ccccc3F)noc2c1Cl)C(=O)O` is lower in melting point: 172 to 174 °C for the first, 149 °C for the second.

First: Cc1cc(C)c(C(CO)c2ccc(Br)cc2)c(O)c1C (stereo unspecified)
Second: O=[N+]([O-])c1ccc(F)c(-c2cccc(CO)c2)c1
The melting point of the first is higher: 114 to 115 °C for the first, 113 to 114 °C for the second.

Compared with `Nc1cc2c(cc1[N+](=O)[O-])[nH]c(=O)c(=O)n2C1CCCCC1`, `CN1CCC(c2c[nH]c3ccc(C(=O)Cc4ccccc4)cc23)CC1` is lower in melting point: greater than 260 °C for the first, 69 °C for the second.

First: CCCCCCCCCCCCCCCCCC(=O)NCCO
Second: CCCCCCCCCCCCCCNC(=O)c1cnccn1
The melting point of the first is higher: 96 to 99 °C for the first, 80 to 81 °C for the second.

Compared with `CNC(=O)/C(=N/OC)c1ccccc1CCl`, `COC(=O)c1ccccc1S(=O)(=O)NC(=O)Nc1ncccn1` is higher in melting point: 72 to 74 °C for the first, 188 to 192 °C for the second.

Compared with `CCc1cnc2c(c1)S(=O)(=O)NC2=O`, `CCC(=O)c1ccc(-c2ncccc2S(=O)(=O)Nc2ncc(C)nc2OC)cc1` is lower in melting point: 199 to 201 °C for the first, 126 to 127 °C for the second.

First: O=C(O)c1ccc(C(Cl)=C(Cl)Cl)cn1
Second: CC(SCc1nccc2ccccc12)C(=O)O (stereo unspecified)
The melting point of the first is higher: 158 to 159 °C for the first, 153 to 156 °C for the second.

Compared with `Nc1cccc(-c2ccc(CCN3CC4C(C3)C4NC(=O)Cc3ccc(F)cc3)cc2)n1` (stereo unspecified), `COCCc1nc2c(N)nc3ccccc3c2n1CCCCNC(=O)c1ccc(-n2cccc2)cc1` is higher in melting point: 161 to 163 °C for the first, 173 to 175 °C for the second.

First: N#Cc1ccc(CBr)c(C#N)c1
Second: N#Cc1cccc(-c2nc(-c3cccnc3)no2)n1
The melting point of the first is lower: 106 °C for the first, 201 to 203 °C for the second.

First: Cc1oc(-c2ccccc2)nc1COc1ccc(OCc2ccccc2)cc1
Second: COC(=O)c1ccc(OCC2CC(=O)N(c3ccc(O)cc3)C2)cc1 (stereo unspecified)
The melting point of the first is lower: 126 to 127 °C for the first, 141 to 144 °C for the second.

Compared with `CC(C)c1cc(C(=O)C=CC(=O)N2CCN(C)CC2)ccc1OCC(=O)Nc1nc2ccccc2s1`, `NC(=O)CN1CCN(c2ccc3c(c2)N2CCN=C2C(c2ccccc2)=[N+]3[O-])CC1` is higher in melting point: 114 to 115 °C for the first, 225 to 227 °C for the second.

Compared with `CCCCCCCCCCCCCC(=O)N[C@H]1CCCNC(=O)C1`, `CCOC(=O)c1ccc(NC(=O)COC)cc1NC(=O)COC` is lower in melting point: 97 to 98 °C for the first, 90 to 91 °C for the second.

`O=C1NC(=S)NC(=O)C1=Cc1ccc[nH]1` showed a melting point of 280 °C.
